Laboratory results from US4260617A, “17-Cyclopropylmethyl-14-hydroxy-3-methoxymorphinan-6-one and method of treating pain with it” (SISA, Incorporated, priority 1979, dated 1981).

Legend:
[1] = in words, prior art; cited from earlier work
[2] = test system: acetic acid induced writhing in mice; assay: Acetic acid mouse writhing test (analgesic effect); format: in vivo, male CD-1 mice; settings: for ED50: Mus musculus, sc, subcutaneous, mice, acetic acid i.p. 15 minutes post drug, writhes in 20 minute interval; for ED50/AD50: ratio of mouse writhing ED50 to rat tail flick AD50
Protocol: The analgesic effects of test compounds were determined in mice by use of the acetic acid writhing test described by B. J. R. Whittle, Brit. J. Pharmacol., 22: 296 (1964). In this test at least three groups of five male CD-1 mice each were given subcutaneous doses of the test drug dissolved in either distilled water or distilled water acidified with HCl depending on the solubility of the compound. In all cases, 0.4 milliliter of a 0.75% V/V acetic acid in distilled water solution was administered intraperitoneally 15 minutes post drug. The number of writhes in a 20 minute interval were determined and compared with the number of writhes in control groups which had received only acetic acid.
Percent inhibition of writhing was calculated as: [formula]
The ED50 dose, i.e., the dose required to reduce the number of writhes by 50%, was determined graphically from a plot of % inhibition as a probit versus log dose. Confidence limits of 95% were calculated on the basis of those results falling in the range 16-84% inhibition. See Litchfield, J. T. and Wilcoxon, F., J. Pharmacol. Exp. Ther., 96, 99-113, (1949).

[3] = test system: morphine effect in rat tail flick; assay: Narcotic antagonist activity (modified rat tail flick test, antagonism of morphine); format: in vivo, male albino Wistar rats; settings: for ED50: Rattus norvegicus, ip, 20 min, test drug intraperitoneally, rats, ED80 dose of morphine s.c. ten minutes later, retested 20 minutes after morphine, read-out: AD50 (the source's name)
Protocol: The narcotic anatagonist effects of test compounds were determined by a modification of the rat tail flick procedure of Harris and Pierson (J. Pharmacol. Exp. Ther. 143: 141 [1964]).
Male albino Wistar rats (100-120 g) were used for this study. A rat's tail is so placed so as to cover a photocell. Heat is applied by a lamp in a reflector with a timer being connected to the lamp and photocell so that the timer goes on when the light is turned on and is turned off when the photocell is uncovered. A rheostat, incorporated into a heating lamp, is used to adjust the intensity of the light fallng on the tail of the rat such that the rat's control reaction time is from two to four seconds. Animals with a control reaction time outside this range are rejected. The rheostat adjustment is made only if a significant proportion (more than 1 out of every 10 rats) of the reaction times are outside the range of 1.8 to 5.8 seconds. Groups of five rats were used each time, and two control times were determined at least 30 minutes apart. The test drug was given intraperitoneally and this was followed ten minutes later by an ED80 dose of morphine subcutaneously. The animals were retested at 20 minutes after the morphine injection. Control animals were given morphine only.
The data were calculated as follows: [formula]
The data were plotted on log-probit paper and AD50 values, i.e., the dose required to inhibit the morphine effect by 50% within 95% confidence limits, were determined by the method of Litchfield and Wilcoxon.

SMILES | analgesic / narcotic antagonist activity [1] | ED50 [2] | ED50/AD50 [2] | ED50 [3] | further results
C[C@H]1[C@H]2Cc3ccc(O)cc3[C@]1(C)CCN2CC1CC1 [cyclazocine] | mixed analgesic/narcotic antagonist activity |  |  |  | 
Oc1ccc2c(c1)C13CCCCC1(O)C(C2)N(CC1CC1)CC3 (stereo not shown) [A] | essentially a narcotic antagonist |  |  |  | 
Cl.O=C1CC[C@@]2(O)[C@H]3Cc4ccc(O)cc4[C@@]2(CCN3CC2CC2)C1 [179-A-20, 17-cyclopropylmethyl-3,14-dihydroxymorphinan-6-one hydrochloride] |  | 2.2 mg/kg | 26.83 | 0.082 mg/kg | more potent in terms of narcotic antagonist activity, by a factor ([3]; 179-A-20 versus 179-A-19): about 6
Oc1ccc2c(c1)C13CCCCC1(O)C(C2)N(CC1CCC1)CC3 (stereo not shown) [B] | both analgesic and narcotic antagonist activity |  |  |  | 
O=C1CCC2(O)C3Cc4ccc(O)cc4C2(CCN3CC2CC2)C1 (stereo not shown) |  |  |  |  | duration of action [1]: very long acting; potency relative to A, cyclazocine or naloxone [1]: more potent than A (above), cyclazocine or naloxone
COc1ccc2c(c1)[C@]13CCN(CC4CC4)[C@H](C2)[C@]1(O)CCC(=O)C3.Cl [179-A-19, 17-cyclopropylmethyl-14-hydroxy-3-methoxymorphinan-6-one hydrochloride] |  | 0.3 mg/kg | 0.6 | 0.5 mg/kg | more potent as an analgesic, by a factor ([2]; 179-A-19 versus 179-A-20): greater than 7
